Data reported in ChEMBL document CHEMBL1201862, “PubChem BioAssay data set” (2004).
The source made the active and inactive calls.

Tests used:
[1] = THP-1 cell cytotoxicity, cytotoxicity control, set 4 (AID 504911); type: functional; conditions: Mycobacterium tuberculosis
[2] = THP-1 cell cytotoxicity, dose response, cytotoxicity control, set 3 (AID 504852); type: functional; conditions: Mycobacterium tuberculosis
[3] = Vero cell cytotoxicity, dose response, cytotoxicity control for M. tuberculosis growth inhibitor project, Vero cells, purified and synthesized compounds, set 4 (AID 504854); type: functional; conditions: Mycobacterium tuberculosis
[4] = molecular target: T1, High affinity choline transporter 1 (Homo sapiens, UniProt Q9GZV3); experiment: human choline transporter potentiators, potency – cell-based, 10-point CRC, membrane potential dye, dose response (AID 602376); type: functional
T1 sequence (Q9GZV3 whole entry): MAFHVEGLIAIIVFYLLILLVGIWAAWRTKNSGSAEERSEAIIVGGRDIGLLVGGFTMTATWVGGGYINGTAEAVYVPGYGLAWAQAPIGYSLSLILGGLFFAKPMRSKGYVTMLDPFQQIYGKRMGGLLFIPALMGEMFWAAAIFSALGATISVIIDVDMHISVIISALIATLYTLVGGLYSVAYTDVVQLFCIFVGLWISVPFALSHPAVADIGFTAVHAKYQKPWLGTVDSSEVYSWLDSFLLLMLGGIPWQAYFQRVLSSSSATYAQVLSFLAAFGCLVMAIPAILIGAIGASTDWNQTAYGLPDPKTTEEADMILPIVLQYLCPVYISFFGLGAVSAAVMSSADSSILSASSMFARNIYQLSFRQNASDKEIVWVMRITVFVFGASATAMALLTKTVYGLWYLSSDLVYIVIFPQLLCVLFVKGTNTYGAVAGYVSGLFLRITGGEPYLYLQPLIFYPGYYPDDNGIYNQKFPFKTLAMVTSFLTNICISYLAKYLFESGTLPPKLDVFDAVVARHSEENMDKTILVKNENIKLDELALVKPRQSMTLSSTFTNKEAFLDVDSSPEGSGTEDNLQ

INS1 [5] = experiment: beta-cell survival under cytokine stress – INS-1E, ATP luminescence, dry powder, dose response (AID 488844); type: functional, cell-based; conditions: Rattus norvegicus
INS1 [6] = experiment: suppression of NO production in INS-1E cells – cell-based, Griess absorbance, dry powder, dose response (AID 488866); type: functional; conditions: Rattus norvegicus
INS1 [7] = experiment: INS-1E mitochondrial potential rescue under cytokines – cell-based, JC-1 fluorescence ratio, dry powder, dose response (AID 488931); type: functional; conditions: Rattus norvegicus
INS1 [8] = experiment: suppression of NO production in INS-1E cells – cell-based, Griess absorbance, dry powder, set 2, dose response (AID 488868); type: functional; conditions: Rattus norvegicus
[9] = suppression of NO production in INS-1E cells – cell-based, Griess absorbance, dry powder, set 3, dose response (AID 488870); type: functional; conditions: Rattus norvegicus
[10] = molecular target: Interleukin-1 receptor-associated kinase 1 (Homo sapiens, UniProt P51617); type: functional;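 further: IRAK1 tested as one member of a kinome panel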
Chain of Interleukin-1 receptor-associated kinase 1 (P51617 whole entry): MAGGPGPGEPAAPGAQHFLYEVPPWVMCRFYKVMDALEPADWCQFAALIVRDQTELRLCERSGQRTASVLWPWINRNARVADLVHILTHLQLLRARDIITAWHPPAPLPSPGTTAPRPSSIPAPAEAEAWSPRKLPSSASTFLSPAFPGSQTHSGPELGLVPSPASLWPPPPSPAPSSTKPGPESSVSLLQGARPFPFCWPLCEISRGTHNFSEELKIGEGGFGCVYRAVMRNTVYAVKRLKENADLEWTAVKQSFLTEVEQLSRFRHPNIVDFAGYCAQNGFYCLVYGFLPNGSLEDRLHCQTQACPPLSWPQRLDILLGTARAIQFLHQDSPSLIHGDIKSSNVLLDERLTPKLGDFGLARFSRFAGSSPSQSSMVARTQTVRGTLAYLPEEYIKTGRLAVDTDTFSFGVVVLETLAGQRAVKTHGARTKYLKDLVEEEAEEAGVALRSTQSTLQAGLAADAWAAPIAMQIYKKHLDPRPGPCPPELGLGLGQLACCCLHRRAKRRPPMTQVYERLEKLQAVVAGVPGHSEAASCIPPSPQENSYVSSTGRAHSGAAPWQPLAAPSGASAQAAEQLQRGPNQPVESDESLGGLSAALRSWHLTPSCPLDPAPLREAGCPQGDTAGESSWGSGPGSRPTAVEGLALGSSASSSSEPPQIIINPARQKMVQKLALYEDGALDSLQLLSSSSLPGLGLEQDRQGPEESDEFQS

[11] = molecular target: Serine/threonine-protein kinase PLK3 (Homo sapiens, UniProt Q9H4B4); type: functional
Chain of Serine/threonine-protein kinase PLK3 (Q9H4B4 whole entry): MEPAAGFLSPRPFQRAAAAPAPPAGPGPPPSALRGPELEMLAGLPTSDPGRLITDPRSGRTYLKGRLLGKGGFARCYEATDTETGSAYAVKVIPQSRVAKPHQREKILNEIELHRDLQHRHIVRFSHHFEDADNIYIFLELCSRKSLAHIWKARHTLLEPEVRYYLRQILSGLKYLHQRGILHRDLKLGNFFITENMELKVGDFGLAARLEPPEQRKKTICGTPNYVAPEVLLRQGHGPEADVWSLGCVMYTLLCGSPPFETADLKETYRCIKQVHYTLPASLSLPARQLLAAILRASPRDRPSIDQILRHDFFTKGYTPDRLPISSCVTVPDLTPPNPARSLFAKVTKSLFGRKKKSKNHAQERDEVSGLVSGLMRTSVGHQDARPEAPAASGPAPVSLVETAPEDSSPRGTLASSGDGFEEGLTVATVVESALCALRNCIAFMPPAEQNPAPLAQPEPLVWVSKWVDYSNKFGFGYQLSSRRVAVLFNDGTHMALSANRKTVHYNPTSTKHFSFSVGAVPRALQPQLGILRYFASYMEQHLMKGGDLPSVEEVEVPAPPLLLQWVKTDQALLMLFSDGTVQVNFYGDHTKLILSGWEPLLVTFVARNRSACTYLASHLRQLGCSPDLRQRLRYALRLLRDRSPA

[12] = molecular target: Serine/threonine-protein kinase PLK4 (Homo sapiens, UniProt O00444); type: functional;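 further: PLK4 measured as one member of a kinome-wide kinase profiling panel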
Chain of Serine/threonine-protein kinase PLK4 (O00444 whole entry): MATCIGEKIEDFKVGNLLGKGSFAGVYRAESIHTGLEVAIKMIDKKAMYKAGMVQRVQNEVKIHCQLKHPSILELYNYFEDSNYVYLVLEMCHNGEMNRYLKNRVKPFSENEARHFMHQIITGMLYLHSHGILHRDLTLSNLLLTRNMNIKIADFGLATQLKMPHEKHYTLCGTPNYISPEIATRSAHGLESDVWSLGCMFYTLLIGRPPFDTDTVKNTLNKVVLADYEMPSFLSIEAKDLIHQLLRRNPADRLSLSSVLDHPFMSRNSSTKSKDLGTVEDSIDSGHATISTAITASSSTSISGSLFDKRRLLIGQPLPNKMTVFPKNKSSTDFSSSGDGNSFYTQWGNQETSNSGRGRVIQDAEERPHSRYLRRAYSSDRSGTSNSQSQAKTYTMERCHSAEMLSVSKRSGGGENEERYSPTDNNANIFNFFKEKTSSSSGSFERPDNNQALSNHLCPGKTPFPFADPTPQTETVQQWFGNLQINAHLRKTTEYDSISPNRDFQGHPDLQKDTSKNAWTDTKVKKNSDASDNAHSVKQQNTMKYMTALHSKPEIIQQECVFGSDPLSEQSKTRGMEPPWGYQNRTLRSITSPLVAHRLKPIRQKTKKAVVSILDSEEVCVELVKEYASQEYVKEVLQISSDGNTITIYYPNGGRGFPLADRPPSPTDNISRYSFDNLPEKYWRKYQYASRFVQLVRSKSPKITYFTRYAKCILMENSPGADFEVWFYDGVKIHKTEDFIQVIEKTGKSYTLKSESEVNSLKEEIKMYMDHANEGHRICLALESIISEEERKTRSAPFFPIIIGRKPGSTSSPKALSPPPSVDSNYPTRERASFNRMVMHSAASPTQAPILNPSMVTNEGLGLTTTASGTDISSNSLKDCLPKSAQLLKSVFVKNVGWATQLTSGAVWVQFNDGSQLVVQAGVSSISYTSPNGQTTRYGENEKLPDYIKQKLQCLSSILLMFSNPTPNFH

COC(=O)C(C)Oc1ccc(Cc2ncc(C(F)(F)F)cc2Cl)cc1 (configuration not stated)
active: CC50 [1] > 100 µM | CC50 [2] > 100 µM | CC50 [3] > 100 µM

CN(Cc1cccc(F)c1)C(=O)c1ccccc1Sc1ccccc1C#N
active: EC50 [4] 15 µM

COc1ccc(S(=O)(=O)N(C)C[C@@H]2Oc3c(NC(=O)Nc4cccc5ccccc45)cccc3C(=O)N([C@@H](C)CO)C[C@H]2C)cc1Cl
active: AC50 (INS1 [5]) 27.3 µM | AC50 (INS1 [6]) 46.3 µM | AC50 (INS1 [7]) 147 µM | AC50 (INS1 [8]) 39.5 µM | AC50 [9] 52.8 µM

CCCn1c(=O)c2[nH]c(-c3cnn(Cc4cccc(C(F)(F)F)c4)c3)nc2n(CC)c1=O [GS 6201]
active: Ki [10] 7.94 µM | Ki [11] 7.94 µM | Ki [12] 3.98 µM
